Measured values taken from ChEMBL document CHEMBL5370574, “Discovery and Characterization of Moracin C as an Anti-Gouty Arthritis/Hyperuricemia Candidate by Docking-Based Virtual Screening and Pharmacological Evaluation” (J Nat Prod, 2023).

Key:
[1] = target: T1, Xanthine dehydrogenase/oxidase (Homo sapiens, UniProt P47989); test: Inhibition of XOD (unknown origin) using xanthine as substrate at 1 uM preincubated for 30 mins followed by xanthine addition measured after 30 mins by microplate reader relative to control; details: 0.5 h, time 60 min
[2] = target: T1, Xanthine dehydrogenase/oxidase; test: Inhibition of XOD (unknown origin) using xanthine as substrate preincubated for 30 mins followed by xanthine addition measured after 30 mins by microplate reader

T1 sequence (P47989 whole entry): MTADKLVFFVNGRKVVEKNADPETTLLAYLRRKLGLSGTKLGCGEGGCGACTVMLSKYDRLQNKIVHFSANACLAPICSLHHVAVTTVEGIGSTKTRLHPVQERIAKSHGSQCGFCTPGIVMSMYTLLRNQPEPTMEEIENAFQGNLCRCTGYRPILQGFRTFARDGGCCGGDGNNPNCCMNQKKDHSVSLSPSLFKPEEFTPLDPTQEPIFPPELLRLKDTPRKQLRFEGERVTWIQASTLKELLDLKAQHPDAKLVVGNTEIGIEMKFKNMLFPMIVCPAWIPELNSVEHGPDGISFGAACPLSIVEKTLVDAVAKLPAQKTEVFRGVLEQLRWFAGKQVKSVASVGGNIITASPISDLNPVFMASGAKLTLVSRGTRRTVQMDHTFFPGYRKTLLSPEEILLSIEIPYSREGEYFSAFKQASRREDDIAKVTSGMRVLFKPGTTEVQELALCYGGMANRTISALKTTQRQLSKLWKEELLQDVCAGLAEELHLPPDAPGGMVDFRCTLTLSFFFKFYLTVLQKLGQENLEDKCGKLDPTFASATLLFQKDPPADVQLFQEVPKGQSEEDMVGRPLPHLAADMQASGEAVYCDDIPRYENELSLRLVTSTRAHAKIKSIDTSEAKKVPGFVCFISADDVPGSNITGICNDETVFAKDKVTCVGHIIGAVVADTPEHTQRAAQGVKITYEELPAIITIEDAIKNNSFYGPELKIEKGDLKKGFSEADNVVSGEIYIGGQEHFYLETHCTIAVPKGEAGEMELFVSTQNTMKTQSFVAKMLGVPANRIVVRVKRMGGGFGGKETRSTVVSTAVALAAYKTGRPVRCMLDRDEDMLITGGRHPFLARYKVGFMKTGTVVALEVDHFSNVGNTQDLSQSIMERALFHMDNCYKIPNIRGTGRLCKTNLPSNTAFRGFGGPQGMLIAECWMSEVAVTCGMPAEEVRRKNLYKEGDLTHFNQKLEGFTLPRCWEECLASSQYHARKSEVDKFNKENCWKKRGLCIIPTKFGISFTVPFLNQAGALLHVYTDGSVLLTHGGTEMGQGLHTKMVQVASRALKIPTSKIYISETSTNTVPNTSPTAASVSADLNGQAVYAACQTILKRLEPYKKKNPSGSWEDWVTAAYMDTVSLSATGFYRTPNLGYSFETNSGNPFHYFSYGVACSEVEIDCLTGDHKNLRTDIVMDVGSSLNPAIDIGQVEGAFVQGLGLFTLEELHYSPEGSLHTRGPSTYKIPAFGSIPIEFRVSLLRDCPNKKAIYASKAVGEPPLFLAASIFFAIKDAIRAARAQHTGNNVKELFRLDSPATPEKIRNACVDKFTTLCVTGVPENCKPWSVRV

SMILES | inhibition at 1 µM [1] | IC50 [2]
COc1cc(O)c2c(=O)cc(-c3cc(OC)c(OC)c(OC)c3)oc2c1 [CORYMBOSIN] | < 20% | –
COc1cc2c(cc1OC)C(Cc1ccc(O)cc1)N(C)CC2 (stereo unspecified) | < 20% | –
CC1(C)C=Cc2c(O)cc(-c3cc4ccc(O)cc4o3)cc2O1 [MORACIN D] | 32% | 5.1 µM
CC1(C)C=Cc2c(ccc3c2O[C@H]2c4ccc(O)cc4OC[C@@H]32)O1 [PHASEOLIN] | < 20% | –
COc1ccc(-c2cc(=O)c3c(O)c(OC)c(OC)cc3o2)cc1 [SALVIGENIN] | < 20% | –
